One test relates to HUVEC endothelial cells. The test is described as follows: Peptide binding assay, HUVEC. Type of test: cell-based, human. The note with it: serial peptide concentrations, biotinylated synthetic peptides. The protocol:
(§1) Human umbilical cord venous endothelial cells (HUVEC) and EGM™ culture medium were from Clonetics, Walkersville, Md. Cells were cultivated in EGM with 5% fetal bovine serum (FBS) in flasks coated with 0.2% gelatin. The bEND.3 cells (ATCC) were cultured in Dulbecco's minimum essential medium (DMEM) (Invitrogen, Carlsbad, Calif.) supplemented with 10% FBS and 2 mM L-glutamine. The HT1080 cells were from ATCC and cultured in DMEM supplemented with 10% FBS, 2 mM L- glutamine, 1.5 g/L sodium bicarbonate, and 0.1 mM NEAA (Non-essential amino acids, Invitrogen, Carlsbad, Calif.). The ECV304 were from ATCC and cultured in DMEM, 10% FBS.
(§2) Analysis of synthetic peptide binding to cells was performed in 96 well plates. Cells (10^5) were plated into each well, incubated overnight then briefly fixed with cold ethanol for 10 seconds. Serial concentrations of peptide in 100 μl PBS were added and incubated at room temperature with gentle shaking for four hours. The wells were washed three times with PBS and reaction developed using strepavidin-peroxidase substrate (Vector, Burlingame, Calif.). The reactions were quantified at 405 nm in a plate reader (Molecular Devices, Sunnyvale, Calif.). In the inhibition assay, TIMP-2 protein was included with the peptide in the initial incubation.

Another test deals with fibroblast line HT1080. The experiment in a line: Peptide binding assay, HT1080. Type of test: cell-based. The note with it: not shown. The protocol: as §1, §2
The test system of a further test is ECV304. The test is described as follows: Peptide binding assay, ECV304. The note with it: not shown. Type of test: cell-based. The protocol:
as §1, §2

For test [1], the system named is TIMP-2 binding site on the surface of endothelial cells. The test is described as follows: Inhibition of peptide binding by TIMP-2 protein. Type of test: cell-based. The following applies: purified TIMP-2 protein 0.05 μM, peptide 0.5 μM. As to the method: as §2
The conditions of test [2]: non-diabetic insulin resistant monkeys; cited from earlier work.
Another test concerns atherosclerotic lesions. The test is described as follows: Biotinylated peptide binding in vivo to atherosclerotic lesions (aorta and sections). Details: species or system atherosclerotic ApoE knockout mice. As to the method:
(§3) Immunohistochemical analysis for binding was performed on frozen 5 micron sections of ApoE mouse atherosclerotic aortic valve and aorta on poly-L-lysine coated slides. Biotinylated peptide binding to aortic lesions was detected by strepavidin conjugated peroxidase and was developed with DAB substrate (Vector, Burlingame, Calif.). For endothelial identification, biotinylated […] was used and was detected with Texas red conjugated strepavidin. Phage staining was performed with rabbit anti-phage antibody followed by a fluorescein conjugated goat anti-rabbit antibody. The sections were analyzed by laser scanning confocal microscopy.
(§4) To observe phage or peptide association with atherosclerotic lesions, either phage carrying a homing peptide sequence or a circular synthetic peptide were injected into the mice via the tail vein. […] Fixation was in situ by perfusion with 4% paraformaldehyde. The aortas were dissected under a microscope, and the associated fat tissue cleaned while attached. The aorta was then longitudinally opened from aortic valve to iliac bifurcation. The detached aorta was pinned flat.
To verify that the peptidyl sequence CAPGPSKSC (SEQ ID NO:4) that is expressed on phage protein m was responsible for the selective localization to atherosclerotic lesions, a biotinylated peptide containing the core sequence CAPGPSKSC (SEQ ID NO:4) was synthesized, folded, disulfide bonds constituted by oxidization, and compositional validity established by mass spectrometry. The peptide was injected into atherosclerotic ApoE knockout mice via tail vein, and the tissues were fixed by in vivo perfusion, and aortas were freed by dissection. The binding of biotinylated peptide to the aorta was visualized with strepavidin conjugated peroxidase and DAB substrate.
The association of this peptide to the atherosclerotic lesions was also analyzed on tissue sections. The experiment was replicated in atherosclerotic ApoE mice by infusing CAPGPSKSC (SEQ ID NO:4) peptide and sections of the aorta were prepared, detected with strepavidin-conjugated peroxidase and developed with DAB substrate. Peptide binding to the surface of atherosclerotic lesions (FIG. 2B) was quite evident. […] These areas are likely involved in lesion formation and differ to some degree in their phenotype compared to that of the overlying endothelium.

Test [3] deals with human atherosclerotic lesions. The experiment in a line: Biotinylated peptide binding to human vessel specimens. The protocol:
The atherosclerotic regions of human vessels were similarly dissected and pinned on to the dissecting pan. These tissues were then incubated with refolded biotinylated peptides (10.0 μg/ml) overnight at 4° C. The samples were washed three times. An avidin-peroxidase conjugate was used as a second tier probe, and each specimen was visualized with DAB substrate.

Test [4] concerns aortic endothelium of ApoE knockout mice. The experiment in a line: Phage binding to aortic valves/endothelium (immunohistochemistry, confocal microscopy). It counts as in vivo. The protocol:
as §3, §4

[5] abbreviates: sections of aorta, atherosclerotic ApoE mice.

Entries after “also recorded” stand apart in the source; their conditions may differ. No end group written: not given here.

On to “CYNRSDGMC (A synthetic sequence from a combinatorial phage display library.) [SEQ ID NO:464, TIMP-2 homologous peptide]”, for which the “peptide binding to endothelial cells (absorbance at 405 nm)” value (“peptide binding to endothelial cells” below) in the test on HUVEC endothelial cells was “dose dependent binding”. The “peptide binding to HT1080 cells” value in the test with fibroblast line HT1080 is recorded as “dose dependent binding”. The “peptide binding to ECV304” value in the test with ECV304 was “dose dependent binding”. Moreover, the “effect of TIMP-2 protein on peptide binding to cells” value (from here on “effect of TIMP-2 protein”) in test [1] was “inhibits binding; also recorded: competitively inhibited”.
Regarding `Cc1cc(SCc2sc(-c3ccc(C(F)(F)F)cc3)nc2C)ccc1OCC(=O)O` [GW501516], in test [2], the “increase of HDL-C” value was 80%; the “increase of apoA-I” value was 43%; the “triglyceride, LDL-C and insulin levels” value is listed as “lowered”.
On to “CNHRYMQMC (A synthetic sequence from a combinatorial phage display library.) [SEQ ID NO:344, Eo3-114]”, for which the “peptide binding to endothelial cells” value in the test on HUVEC endothelial cells is “dose dependent binding”. In addition, the “peptide binding to HT1080 cells” value in the test on fibroblast line HT1080 is on record as “dose dependent binding”. Further, in the test on ECV304, the “peptide binding to ECV304” value was “dose dependent binding”. In addition, the “effect of TIMP-2 protein” value in test [1] was “inhibits binding; also recorded: competitively inhibited”.
As to “CAPGPSKSC (not fully specified (bridges); cysteine pairing not given here) [SEQ ID NO:4]”, in the test on atherosclerotic lesions (biotinylated synthetic peptide via tail vein, atherosclerotic ApoE knockout mice, streptavidin-peroxidase/DAB), the “peptide binding to lesions of the aorta” value is on record as “like that of phage displaying the peptide; also recorded: replicated the CAPGPSKSC (SEQ ID NO:4) phage binding to the lesions”. Further, the “peptide binding to the surface of atherosclerotic lesions, tissue sections” value in the test with atherosclerotic lesions (sections of aorta after infusion of peptide, atherosclerotic ApoE mice) was “quite evident”. Besides, in the test on atherosclerotic lesions (setting [5]), the “pattern of peptide binding within the lesion, tissue sections” value is “most intense in the endothelium overlying the atherosclerotic lesion; also recorded: bind more to the endothelium at the periphery of the lesions and less to the central aspect of the lesions”; the “peptide signal outside the lesions, tissue sections” value was “no substantial signal was evident elsewhere”. Further, in test [3] (biotinylated peptide 10.0 μg/ml on luminal surface, overnight 4° C., avidin-peroxidase/DAB), the “peptide binding to atherosclerotic lesion in human arterial specimen” value is listed as “Bound peptide is apparent; also recorded: preferentially bound to the atherosclerotic plaque”. In test [3] (human vascular samples, biotinylated peptide), the “peptide binding to non-atherosclerotic arterial samples or veins” value was “no observable binding”.
As to “CNQRHQMSC (A synthetic sequence from a combinatorial phage display library.) [SEQ ID NO:336, Eo3-112]”, in the test on HUVEC endothelial cells, the “peptide binding to endothelial cells” value is “dose dependent binding”. Besides, in the test on fibroblast line HT1080, the “peptide binding to HT1080 cells” value is recorded as “dose dependent binding”. In addition, the “peptide binding to ECV304” value in the test with ECV304 was “dose dependent binding”. The “effect of TIMP-2 protein” value in test [1] was “inhibits binding; also recorded: competitively inhibited”. In test [4], the “selectivity of localization for atherosclerotic lesion endothelium” value is “associates with a molecule present on both atherosclerotic and normal endothelial surfaces; also recorded: not entirely selective for atherosclerotic lesion endothelium”.

Values taken from patent US20070264194A1, “Peptides That Bind To Atherosclerotic Lesions” (The Scripps Research Institute, priority 2001, published 2007).
